Key:
[1] = test system: human breast cancer cell line (MCF-7); experiment: MTT assay, cytotoxicity; format: cell-based; conditions: MCF-7, 24 hours
Experimental: (§1) Cancer cell lines were manipulated according to the method described by Sigounas et al.. In this method, the cell lines were grown as adherent monolayers in T75 flasks with Dulbecco's modified Eagle's medium (DMEM) supplemented with 10% Fetal Bovine Serum (FBS), 2 mM L-glutamine, and 1% streptomycin/penicillin. The cells were left to grow in a CO2 incubator at 37°C, 5% CO2, and 95% humidity until their confluence.
(§2) The 3-[4,5-dimethylthiazol-2-yl]-2,5-diphenyltetrazolium bromide (MTT) colorimetric assay was used to examine the sensitivity of cells to tested compounds (as anticancer drugs), as previously described. This assay depends on the production of a purple formazan derivative from the yellow tetrazolium bromide (MTT) by mitochondrial succinate dehydrogenase in viable cells. The percentage of cell survival was calculated as follows: (1) Percentage of survival=O.D.treated cells/O.D.control cells×100.
(§3) For preliminary screening of the cytotoxicity of synthesized compounds 3a-g, cells exposed to DMSO were used as a control. Plotting the relationship between the survival score and the compound concentration and calculating the IC50 (the concentration required to inhibit cell viability by 50%) were performed for each test compound according to Li et al. in comparison with the reference standard anticancer agent, 5-FU.
(§4) The 3-[4,5-dimethylthiazol-2-yl]-2,5-diphenyltetrazolium bromide (MTT) colorimetric assay was used to examine the sensitivity of cells to tested compounds (as anticancer drugs), as previously described by Hussein et al. (2017). This assay depend on the production of a purple formazan derivative from the yellow tetrazolium bromide (MTT) by mitochondrial succinate dehydrogenase in viable cells. Briefly, after harvesting the cells with 0.25% trypsin, the cell lines were suspended in DMEM. Cells were seeded in 96-well microtiter plates at a concentration of 5×10^4 cell/well in a fresh medium and left to attach to the plates for 24 h before treatment with the tested compounds 3a-g. Test compounds were dissolved in dimethyl sulfoxide (DMSO). After 24 hours, cells were incubated with the appropriate concentration ranges of compounds, the wells were diluted to […] with fresh medium and incubation was continued for 24 hours. Three wells were used for each concentration. After 24 hours of treatment, 20 μl of MTT solution (5mg/ml) was added and subsequently the plates were further incubated for 4 hours to allow the viable cells to biotransform the yellow-colored MTT into purple formazan crystals. The optical density (O.D.) of each well was measured spectrophotometrically at […] with an enzyme-linked immunosorbent assay (ELISA) microplate reader (BioTek, EL-800, USA). The percentage of cell survival was calculated as follows: […]

[2] = test system: human liver cancer cell line (HepG2); experiment: MTT assay, cytotoxicity; format: cell-based; conditions: HepG2, 24 hours
Experimental: as §1, §2, §3, §4

[3] = test system: HepG2 cell line; experiment: Cell cycle analysis (PI, flow cytometry); format: cell-based, human
Experimental: Cell cycle analysis was performed to decide if the newly synthesized thienopyrimidine derivatives arrested the cell cycle and at what phase of the cell cycle, the HepG2 and MCF-7 cell lines were arrested. The experiments were performed as previously described by Tolba et al.. HepG2 and MCF-7 cell lines were seeded and incubated with the tested compounds in 6-well plates. After incubation overnight, the cells were washed twice with ice-cold phosphate-buffered saline (PBS), detached by EDTA-trypsinization from the plates, harvested by centrifugation, fixed in ice-cold 70% (v/v) ethanol, and washed with phosphate-buffered saline (PBS, pH 7.2 ± 0.2). The cells were resuspended with 0.1 mg/ml RNase, stained with […] propidium iodide (PI), and analyzed by flow cytometry using a FACSCalibur flow cytometer (BD Biosciences, San Jose, CA). CellQuest software (Becton Dickinson) was used to determine the cell cycle distributions after incubation with 5-FU or tested compounds. Exposure of HepG2 and MCF-7 cell lines to these compounds could interfere with the normal cell cycle distribution.

SMILES	melting point [°C]	survival percentage (mean ± SEM) ([1]; 4.8828125 μg/ml) [%]	survival percentage (mean ± SEM) ([1]; 9.765625 μg/ml) [%]	survival percentage (mean ± SEM) ([1]; 19.53125 μg/ml) [%]	survival percentage (mean ± SEM) ([1]; 39.0625 μg/ml) [%]	survival percentage (mean ± SEM) ([1]; 78.125 μg/ml) [%]	survival percentage (mean ± SEM) ([1]; 156.25 μg/ml) [%]	survival percentage (mean ± SEM) ([1]; 312.5 μg/ml) [%]	survival percentage (mean ± SEM) ([1]; 625 μg/ml) [%]	survival percentage (mean ± SEM) ([1]; 1250 μg/ml) [%]	survival percentage (mean ± SEM) ([1]; 2500 μg/ml) [%]	survival percentage (mean ± SEM) ([1]; 5000 μg/ml) [%]	survival percentage (mean ± SEM) ([1]; 10000 μg/ml) [%]	survival percentage (mean ± SEM) ([2]; 4.8828125 μg/ml) [%]	survival percentage (mean ± SEM) ([2]; 9.765625 μg/ml) [%]	survival percentage (mean ± SEM) ([2]; 19.53125 μg/ml) [%]	survival percentage (mean ± SEM) ([2]; 39.0625 μg/ml) [%]	survival percentage (mean ± SEM) ([2]; 78.125 μg/ml) [%]	survival percentage (mean ± SEM) ([2]; 156.25 μg/ml) [%]	survival percentage (mean ± SEM) ([2]; 312.5 μg/ml) [%]	also measured
CCOC(=O)Cn1c(SCC(=O)Nc2ccc(C(=O)/C=C\c3cccc([N+](=O)[O-])c3)cc2)nc2sc3c(c2c1=O)CCN(C(=O)OCC)C3 [Compound 3c, Ethyl (Z)-3-(2-Ethoxy-2-oxoethyl)-2-((2-((4-(3-(3-nitrophenyl)acryloyl)phenyl)amino)-2-oxoethyl)thio)-4-oxo-3,5,6,8-tetrahydropyrido[4′,3′:4,5]thieno[2,3-d]pyrimidine-7(4H)-carboxylate]	189 to 190	149.3 ± 0.082	135.4 ± 0.066	140.3 ± 0.197	132.0 ± 0.136	121.5 ± 0.183	110.9 ± 0.063	71.1 ± 0.156	11.3 ± 0.026	7.4 ± 0.003	6.4 ± 0.003	6.4 ± 0.007	5.9 ± 0.002	91.5 ± 0.013	81.6 ± 0.027	69.8 ± 0.027	63.0 ± 0.030	62.4 ± 0.051	22.1 ± 0.011	21.1 ± 0.004	survival percentage (mean ± SEM) ([2]; 625 μg/ml): 20.6 ± 0.003%; survival percentage (mean ± SEM) ([2]; 1250 μg/ml): 20.1 ± 0.004%; survival percentage (mean ± SEM) ([2]; 2500 μg/ml): 19.0 ± 0.002%; survival percentage (mean ± SEM) ([2]; 5000 μg/ml): 18.8 ± 0.001%; survival percentage (mean ± SEM) ([2]; 10000 μg/ml): 18.0 ± 0.001%; G1 phase cell population [3]: significant increase; %DIP G1 ([3]; flow cytometry panel): 55.32%
CCOC(=O)N1CCc2c(sc3nc(SCC(=O)Nc4ccc(C(=O)/C=C\c5cc(OC)c(OC)c(OC)c5)cc4)[nH]c(=O)c23)C1 [Compound 3e, Ethyl (Z)-4-Oxo-2-((2-oxo-2-((4-(3-(3,4,5-trimethoxyphenyl)acryloyl)phenyl)amino)ethyl)-thio)-3,5,6,8-tetrahydropyrido[4′,3′:4,5]thieno[2,3-d]pyrimidine-7(4H)-carboxylate]	167 to 168	147.1 ± 0.051	131.6 ± 0.132	123.4 ± 0.070	129.1 ± 0.033	109.2 ± 0.084	104.2 ± 0.026	61.5 ± 0.112	38.0 ± 0.030	27.8 ± 0.021	17.9 ± 0.002	16.0 ± 0.000	15.9 ± 0.002	127.5 ± 0.033	114.3 ± 0.141	91.9 ± 0.060	45.1 ± 0.072	21.4 ± 0.073	21.1± 0.012	19.8 ± 0.005	survival percentage (mean ± SEM) ([2]; 625 μg/ml): 18.9 ± 0.001%; survival percentage (mean ± SEM) ([2]; 1250 μg/ml): 18.4 ± 0.003%; survival percentage (mean ± SEM) ([2]; 2500 μg/ml): 17.4 ± 0.002%; survival percentage (mean ± SEM) ([2]; 5000 μg/ml): 16.8 ± 0.003%; survival percentage (mean ± SEM) ([2]; 10000 μg/ml): 14.1 ± 0.002%; cell population in G2/M compared with control cells [3]: substantial increase; cell population in pre-G1 phases compared with control cells [3]: significant increase

From publication PMC8728392, “Synthesis, Anticancer Assessment, and Molecular Docking of Novel Chalcone-Thienopyrimidine Derivatives in HepG2 and MCF-7 Cell Lines” (Oxidative Medicine and Cellular Longevity, 2021)
